Assay results reported in patent US20260317337A1, “HETEROCYCLIC COMPOUNDS FOR IMAGING AGGREGATED ALPHA SYNUCLEIN IN THE SYNUCLEINOPATHIES” (THE TRUSTEES OF THE UNIVERSITY OF PENNSYLVANIA, priority 2023, published 2026).
Read-outs that look alike come from different tables or passages of the source. One block for each molecule: values may come before it.

What was measured:
α-synuclein fibrils = α-synuclein fibrils (Homo sapiens, UniProt P37840); assay: Competitive radioligand binding with [^3H]BF2846 on α-synuclein fibrils; conditions: [^3H]BF2846, α-synuclein fibrils; mean + Sd, n = 3; read-out: α-syn Ki
Procedure: Competition binding assays were performed with [^3H]BF2846 and [^3H]PIB to measure affinity to Asyn and Aβ. […]

aggregated tau = aggregated tau (Homo sapiens, UniProt P10636); assay: Blocking of the ^3H-labelled compound with tau ligands, homogenate binding and autoradiography; conditions: AD, CBD and PSP
aggregated tau, sequence (P10636 whole entry): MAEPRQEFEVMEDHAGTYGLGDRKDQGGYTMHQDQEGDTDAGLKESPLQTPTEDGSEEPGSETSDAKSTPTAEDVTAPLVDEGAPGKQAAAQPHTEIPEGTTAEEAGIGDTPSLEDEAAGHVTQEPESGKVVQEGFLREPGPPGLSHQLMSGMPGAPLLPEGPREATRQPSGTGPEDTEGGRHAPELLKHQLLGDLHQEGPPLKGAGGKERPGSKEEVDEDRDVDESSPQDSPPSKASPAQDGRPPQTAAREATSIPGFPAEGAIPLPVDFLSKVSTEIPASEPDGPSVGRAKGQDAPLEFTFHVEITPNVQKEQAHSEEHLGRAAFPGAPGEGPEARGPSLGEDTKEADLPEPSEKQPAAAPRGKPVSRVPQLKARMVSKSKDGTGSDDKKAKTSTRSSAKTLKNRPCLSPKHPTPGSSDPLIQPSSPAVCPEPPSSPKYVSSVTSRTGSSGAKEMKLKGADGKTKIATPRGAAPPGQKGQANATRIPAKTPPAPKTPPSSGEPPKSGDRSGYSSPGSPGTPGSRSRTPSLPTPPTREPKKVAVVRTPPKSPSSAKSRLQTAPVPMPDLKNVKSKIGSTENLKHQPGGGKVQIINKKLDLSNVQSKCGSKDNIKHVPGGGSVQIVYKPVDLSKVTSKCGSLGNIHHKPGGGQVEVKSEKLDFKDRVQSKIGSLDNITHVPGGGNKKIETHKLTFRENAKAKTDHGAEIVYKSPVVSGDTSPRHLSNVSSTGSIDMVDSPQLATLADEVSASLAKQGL

alpha synuclein = target: T1, alpha synuclein (Homo sapiens, UniProt P37840); assay: Autoradiography in postmortem brain tissue sections; format: binding; conditions: PD, MSA and control brain sections
T1 construct: autoradiography
Procedure: FIGS. 1A and 1C are nuclear emulsion autoradiography images of a postmortem brain samples (A—[…] PD brain; C—MSA brain) after administration of ^3H-Compound 103. FIGS. 1B and 1D are the same samples from FIGS. 1A and 1C after incubating sequentially with anti-phospho-α-syn (S129) antibody (p-syn/81A, BioLegend) and Alexa Fluor 488 goat anti-mouse secondary antibody to immunostain LBs and LNs. FIGS. 1E and 1G are nuclear emulsion autoradiography images of postmortem brain samples of (E—PD brain; G—[…] MSA brain) with ^3H-Compound 43. FIGS. 1F and 1H are the same samples from FIGS. 1E and 1G after incubating sequentially with anti-phospho-α-syn (S129) antibody (p-syn/81A, BioLegend) and Alexa Fluor 488 goat anti-mouse secondary antibody to immunostain LBs and LNs.
FIG. 3 are autoradiography images in tissue sections of ^3H-Compound 103 and ^3H-Compound 43 in PD, MSA and control brain. Neuropathological scores for Abeta, tau and Asyn are shown for each tissue section.
Kd and Bmax values of [^3H]-Compound 113 were obtained from a panel of postmortem brain samples (e.g., PD, MSA, corticobasal degeneration (CBD), progressive supranuclear palsy (PSP), Alzheimer's disease (AD)). Nuclear emulsion autoradiography identified the distribution of [^3H]-Compound 113 on PD and MSA tissues for aggregated Asyn, which was confirmed by antibody staining. […]

[1] = Dynamic PET imaging in non-human primate; format: in vivo
Procedure: FIG. 2 are dynamic whole body PET images of ^11C-compound 103 in a non-human primate 1-90 minutes after administration ^11C-compound 103.
FIG. 6 are dynamic PET images (top) and time-activity curves for whole brain and different brain regions (bottom) of ^11C-compound 103 in a non-human primate and show the high uptake and rapid washout of [^11C]-compound 103.
FIG. 7 are dynamic PET images (top) and time-activity curves (bottom) of ^11C-compound 43 in a non-human primate and show the high uptake and rapid washout of [^11C]-compound 43.
Kd and Bmax values of [^3H]-Compound 113 were obtained from a panel of postmortem brain samples (e.g., PD, MSA, corticobasal degeneration (CBD), progressive supranuclear palsy (PSP), Alzheimer's disease (AD)). Nuclear emulsion autoradiography identified the distribution of [^3H]-Compound 113 on PD and MSA tissues for aggregated Asyn, which was confirmed by antibody staining. Dynamic whole body PET images of [^11C]-Compound 113 in non-human primate were obtained over 90 min. […] The non-human primate PET study confirmed that [^11C]-Compound 113 had good brain uptake (SUV ~1.6) and rapid washout (2:60 min ratio ~3.0).

Ki (α-synuclein fibrils): 16.9 nM
Structure (SMILES): Nc1nc(N2CCN(c3ccccn3)CC2)ncc1C(=O)Nc1ccc(OC[C@H](O)CF)cc1 [Compound 135, (S)-4-amino-N-(4-(3-fluoro-2-hydroxypropoxy)phenyl)-2-(4-(pyridin-2-yl)piperazin-1-yl)pyrimidine-5-carboxamide]

Ki (α-synuclein fibrils): 24.8 nM
Structure (SMILES): Nc1nc(N2CCN(c3ccccn3)CC2)ncc1C(=O)Nc1ccc(OC[C@@H](O)CF)cc1 [Compound 136, (R)-4-amino-N-(4-(3-fluoro-2-hydroxypropoxy)phenyl)-2-(4-(pyridin-2-yl)piperazin-1-yl)pyrimidine-5-carboxamide]

blocking of [^3H]-Compound 113 binding by tau ligands (aggregated tau): could not be blocked
Structure (SMILES): Fc1cc(-c2ccc3c(n2)[nH]c2ccncc23)ccn1 [PI-2620]

blocking of [^3H]-Compound 113 binding by tau ligands (aggregated tau): could not be blocked
Structure (SMILES): CNc1ccc(/C=C/C=C/c2nc3ccc(OCC(O)CF)cc3s2)cn1 (centres unmarked) [PM-PBB3]

ability to image alpha synuclein in human postmortem samples (alpha synuclein): PD and not MSA and age-matched control
Structure (SMILES): COc1ccc(NC(=O)c2cnc(Cl)nc2)cc1 [[^3H]-Compound 43]

Structure (SMILES): COc1ccc(C(=O)Nc2ccc(N3C4CCC3CN(c3ccccn3)C4)cc2)cc1 [[^3H]-Compound 103, 4-methoxy-N-(4-(3-(pyridin-2-yl)-3,8-diazabicyclo[3.2.1]octan-8-yl)phenyl)benzamide]
ability to image alpha synuclein in human postmortem samples (alpha synuclein): MSA and not PD and age-matched control

Structure (SMILES): COc1ccc(C(=O)Nc2ccc(N3C4CCC3CN(c3ccccn3)C4)cc2)cc1 [[^11C]-Compound 103, 4-methoxy-N-(4-(3-(pyridin-2-yl)-3,8-diazabicyclo[3.2.1]octan-8-yl)phenyl)benzamide]
uptake (words) [1]: high brain uptake
washout [1]: rapid washout
uptake (words) ([1]; listed as [^11C]-compound 103): high uptake

uptake (words) [1]: high uptake
washout [1]: rapid washout
Structure (SMILES): COc1ccc(NC(=O)c2cnc(Cl)nc2)cc1 [[^11C]-compound 43]
